Data from PubChem BioAssay AID588778 (Southern Research Institute, 2011).
Converted amounts (≈) assume the structure as drawn. The source made the active and inactive calls. The rule behind the calls is not given here.

System: Vibrio cholerae motility, OD read-out
Experiment: Vibrio cholerae motility inhibitors, OD read-out (AID 588778)

| SMILES | IC50 |
| --- | --- |
| C=CCNC(=S)Nc1ccc(Cl)c(Cl)c1 | 26.4 µg/mL (inactive) (≈ 101 µM) |
| O=C(Oc1ccc(Cl)c2cccnc12)c1cccs1 | 12.8 µg/mL (inactive) (≈ 44.2 µM) |
| CC(NC(=O)c1ccc([N+](=O)[O-])o1)C12CC3CC(CC(C3)C1)C2 (configuration not stated) | 3.3 µg/mL (inactive) (≈ 10.4 µM) |
| CC(=O)NC(=S)NNC(=O)c1ccc(-c2ccccc2)cc1 | 1.96 µg/mL (inactive) (≈ 6.25 µM) |
| FC(F)(F)c1ccccc1-n1c(-c2cccnc2)n[nH]c1=S | 6.15 µg/mL (inactive) (≈ 19.1 µM) |
| O=C(N/C(=C/c1cccs1)c1nc2ccccc2[nH]1)c1cccs1 | 16.8 µg/mL (inactive) (≈ 47.8 µM) |
| Cc1ccc(OCCn2ccnc2)c(Cl)c1 | 25.9 µg/mL (inactive) (≈ 109 µM) |
| O=[N+]([O-])c1nn(Cc2c(F)cccc2Cl)cc1Cl | 1.4 µg/mL (≈ 4.83 µM) |
| COC(=O)c1sc2cc(NC(=S)NC(C)c3ccc4c(c3)OCO4)ccc2c1Cl (configuration not stated) | 46.8 µg/mL (inactive) (≈ 104 µM) |
| O=[N+]([O-])c1nn(Cc2ccc(F)cc2)cc1Br | 4.1 µg/mL (≈ 13.7 µM) |
| CC[n+]1c(/C=C/c2ccc(-c3ccc([N+](=O)[O-])cc3)o2)ccc2ccccc21 | 15.3 µg/mL (inactive) |
| COC(=O)NC12CC3CC(CC(C3)C1)C2 | 16.4 µg/mL (inactive) (≈ 78.4 µM) |
| NC(=O)NNc1c2ccccc2nc2ccccc12 | 13 µg/mL (inactive) (≈ 51.5 µM) |
| Nc1nc(NC(=O)c2ccco2)nn1-c1ccccc1 | 11.3 µg/mL (≈ 42 µM) |
| Cc1ccc(C)c(Nc2nc(NCCO)c3ccccc3n2)c1 | 6.87 µg/mL (≈ 22.3 µM) |
| Nc1nc(-c2ccccc2)cc(N2CCCCC2)n1 | 14.3 µg/mL (inactive) (≈ 56.2 µM) |
| O=C1CC(Sc2ccccc2C(=O)O)C(=O)N1 (configuration not stated) | 8.99 µg/mL (inactive) (≈ 35.8 µM) |
